Measured values published in ChEMBL document CHEMBL4257449, “New N-(2-phenyl-4-oxo-1,3-thiazolidin-3-yl)-1,2-benzothiazole-3-carboxamides and acetamides as antimicrobial agents” (2017).
In brackets after ≈: the same amount, converted by molar mass.

Assays:
Trichoderma viride [1] = assay: Fungicidal activity against Trichoderma viride IAM 5061 incubated for 72 hrs followed by serial sub-cultivation for 72 hrs and measured after 72 hrs by serial dilution method; format: functional
Escherichia coli [2] = assay: Bactericidal activity against Escherichia coli ATCC 35210 incubated for 24 hrs followed by serial sub-cultivation and measured after 24 hrs by microdilution method; format: functional
Trichoderma viride [3] = assay: Antifungal activity against Trichoderma viride IAM 5061 after 72 hrs by serial dilution method; format: functional; conditions: IAM 5061, 72 h
Enterobacter cloacae [4] = assay: Bactericidal activity against Enterobacter cloacae incubated for 24 hrs followed by serial sub-cultivation and measured after 24 hrs by microdilution method; format: functional
Candida albicans [5] = assay: Fungicidal activity against Candida albicans incubated for 72 hrs followed by serial sub-cultivation for 72 hrs and measured after 72 hrs by serial dilution method; format: functional
Staphylococcus aureus [6] = assay: Bactericidal activity against Staphylococcus aureus ATCC 6538 incubated for 24 hrs followed by serial sub-cultivation and measured after 24 hrs by microdilution method; format: functional
Penicillium ochrochloron [7] = assay: Antifungal activity against Penicillium ochrochloron ATCC 9112 after 72 hrs by serial dilution method; format: functional; conditions: ATCC 9112, 72 h
Salmonella typhimurium [8] = assay: Antibacterial activity against Salmonella typhimurium ATCC 13311 after 24 hrs by microdilution method; format: functional, Salmonella enterica subsp. enterica serovar Typhimurium; conditions: Salmonella enterica, ATCC 13311, 24 h
Aspergillus fumigatus [9] = assay: Antifungal activity against Aspergillus fumigatus after 72 hrs by serial dilution method; format: functional
Bacillus cereus [10] = assay: Bactericidal activity against Bacillus cereus incubated for 24 hrs followed by serial sub-cultivation and measured after 24 hrs by microdilution method; format: functional
Listeria monocytogenes [11] = assay: Antibacterial activity against Listeria monocytogenes NCTC 7973 after 24 hrs by microdilution method; format: functional; conditions: NCTC 7973, 24 h
Bacillus cereus [12] = assay: Antibacterial activity against Bacillus cereus after 24 hrs by microdilution method; format: functional
Aspergillus versicolor [13] = assay: Fungicidal activity against Aspergillus versicolor ATCC 11730 incubated for 72 hrs followed by serial sub-cultivation for 72 hrs and measured after 72 hrs by serial dilution method; format: functional
Salmonella typhimurium [14] = assay: Bactericidal activity against Salmonella typhimurium ATCC 13311 incubated for 24 hrs followed by serial sub-cultivation and measured after 24 hrs by microdilution method; format: functional, Salmonella enterica subsp. enterica serovar Typhimurium
Aspergillus ochraceus [15] = assay: Fungicidal activity against Aspergillus ochraceus ATCC 12066 incubated for 72 hrs followed by serial sub-cultivation for 72 hrs and measured after 72 hrs by serial dilution method; format: functional
Pseudomonas aeruginosa [16] = assay: Bactericidal activity against Pseudomonas aeruginosa ATCC 27853 incubated for 24 hrs followed by serial sub-cultivation and measured after 24 hrs by microdilution method; format: functional
Enterobacter cloacae [17] = assay: Antibacterial activity against Enterobacter cloacae after 24 hrs by microdilution method; format: functional
Aspergillus ochraceus [18] = assay: Antifungal activity against Aspergillus ochraceus ATCC 12066 after 72 hrs by serial dilution method; format: functional; conditions: ATCC 12066, 72 h
Aspergillus niger [19] = assay: Fungicidal activity against Aspergillus niger ATCC 6275 incubated for 72 hrs followed by serial sub-cultivation for 72 hrs and measured after 72 hrs by serial dilution method; format: functional
Micrococcus flavus [20] = assay: Bactericidal activity against Micrococcus flavus ATCC 10240 incubated for 24 hrs followed by serial sub-cultivation and measured after 24 hrs by microdilution method; format: functional
Candida albicans [21] = assay: Antifungal activity against Candida albicans after 72 hrs by serial dilution method; format: functional
Talaromyces funiculosus [22] = assay: Antifungal activity against Penicillium funiculosum ATCC 36839 after 72 hrs by serial dilution method; format: functional; conditions: ATCC 36839, 72 h
Aspergillus fumigatus [23] = assay: Fungicidal activity against Aspergillus fumigatus incubated for 72 hrs followed by serial sub-cultivation for 72 hrs and measured after 72 hrs by serial dilution method; format: functional
Talaromyces funiculosus [24] = assay: Fungicidal activity against Penicillium funiculosum ATCC 36839 incubated for 72 hrs followed by serial sub-cultivation for 72 hrs and measured after 72 hrs by serial dilution method; format: functional
Pseudomonas aeruginosa [25] = assay: Antibacterial activity against Pseudomonas aeruginosa ATCC 27853 after 24 hrs by microdilution method; format: functional; conditions: ATCC 27853, 24 h
Aspergillus niger [26] = assay: Antifungal activity against Aspergillus niger ATCC 6275 after 72 hrs by serial dilution method; format: functional; conditions: ATCC 6275, 72 h
Staphylococcus aureus [27] = assay: Antibacterial activity against Staphylococcus aureus ATCC 6538 after 24 hrs by microdilution method; format: functional; conditions: ATCC 6538, 24 h
Penicillium ochrochloron [28] = assay: Fungicidal activity against Penicillium ochrochloron ATCC 9112 incubated for 72 hrs followed by serial sub-cultivation for 72 hrs and measured after 72 hrs by serial dilution method; format: functional
Escherichia coli [29] = assay: Antibacterial activity against Escherichia coli ATCC 35210 after 24 hrs by microdilution method; format: functional; conditions: ATCC 35210, 24 h
Micrococcus flavus [30] = assay: Antibacterial activity against Micrococcus flavus ATCC 10240 after 24 hrs by microdilution method; format: functional; conditions: ATCC 10240, 24 h
Aspergillus versicolor [31] = assay: Antifungal activity against Aspergillus versicolor ATCC 11730 after 72 hrs by serial dilution method; format: functional; conditions: ATCC 11730, 72 h
Listeria monocytogenes [32] = assay: Bactericidal activity against Listeria monocytogenes NCTC 7973 incubated for 24 hrs followed by serial sub-cultivation and measured after 24 hrs by microdilution method; format: functional

| MIC (Trichoderma viride [3]) | MIC (Penicillium ochrochloron [7]) | MIC (Salmonella typhimurium [8]) | MIC (Aspergillus fumigatus [9]) | MIC (Listeria monocytogenes [11]) | MIC (Bacillus cereus [12]) | MIC (Enterobacter cloacae [17]) | MIC (Aspergillus ochraceus [18]) | Compound | MFC99.5 (Trichoderma viride [1]) | MBC99.5 (Escherichia coli [2]) | MBC99.5 (Enterobacter cloacae [4]) | MFC99.5 (Candida albicans [5]) | MBC99.5 (Staphylococcus aureus [6]) | MBC99.5 (Bacillus cereus [10]) | MFC99.5 (Aspergillus versicolor [13]) | MBC99.5 (Salmonella typhimurium [14]) | MFC99.5 (Aspergillus ochraceus [15]) | MBC99.5 (Pseudomonas aeruginosa [16]) | MFC99.5 (Aspergillus niger [19]) | MBC99.5 (Micrococcus flavus [20]) | further results |
| --- | --- | --- | --- | --- | --- | --- | --- | --- | --- | --- | --- | --- | --- | --- | --- | --- | --- | --- | --- | --- | --- |
| 54 µM (≈ 20 µg/mL) | 162 µM (≈ 59.9 µg/mL) | 216 µM (≈ 79.8 µg/mL) | 108 µM (≈ 39.9 µg/mL) | 216 µM (≈ 79.8 µg/mL) | 216 µM (≈ 79.8 µg/mL) | 108 µM (≈ 39.9 µg/mL) | 54 µM (≈ 20 µg/mL) | O=C(Cc1nsc2ccccc12)NN1C(=O)CSC1c1ccccc1 (stereo unspecified) | 10.8 ×10⁻² umol/ml | 40.5 ×10⁻² umol/ml | 21.4 ×10⁻² umol/ml | 40.5 ×10⁻² umol/ml | 40.5 ×10⁻² umol/ml | 40.5 ×10⁻² umol/ml | 40.5 ×10⁻² umol/ml | 40.5 ×10⁻² umol/ml | 10.8 ×10⁻² umol/ml | 40.5 ×10⁻² umol/ml | 21.6 ×10⁻² umol/ml | 40.5 ×10⁻² umol/ml | MIC (Candida albicans [21]): 216 µM (≈ 79.8 µg/mL); MIC (Talaromyces funiculosus [22]): 216 µM (≈ 79.8 µg/mL); MFC99.5 (Aspergillus fumigatus [23]): 40.5 ×10⁻² umol/ml; MFC99.5 (Talaromyces funiculosus [24]): 21.6 ×10⁻² umol/ml; MIC (Pseudomonas aeruginosa [25]): 216 µM (≈ 79.8 µg/mL); MIC (Aspergillus niger [26]): 162 µM (≈ 59.9 µg/mL); MIC (Staphylococcus aureus [27]): 216 µM (≈ 79.8 µg/mL); MFC99.5 (Penicillium ochrochloron [28]): 21.6 ×10⁻² umol/ml; MIC (Escherichia coli [29]): 216 µM (≈ 79.8 µg/mL); MIC (Micrococcus flavus [30]): 297 µM (≈ 110 µg/mL); MIC (Aspergillus versicolor [31]): 216 µM (≈ 79.8 µg/mL); MBC99.5 (Listeria monocytogenes [32]): 40.5 ×10⁻² umol/ml |
| 74 µM (≈ 29.9 µg/mL) | 144 µM (≈ 58.2 µg/mL) | 198 µM (≈ 80 µg/mL) | 372 µM (≈ 150 µg/mL) | 372 µM (≈ 150 µg/mL) | 198 µM (≈ 80 µg/mL) | 273 µM (≈ 110 µg/mL) | 100 µM (≈ 40.4 µg/mL) | O=C(Cc1nsc2ccccc12)NN1C(=O)CSC1c1ccccc1Cl (stereo unspecified) | 10 ×10⁻² umol/ml | 37.2 ×10⁻² umol/ml | 37.2 ×10⁻² umol/ml | 37.2 ×10⁻² umol/ml | 37.2 ×10⁻² umol/ml | 37.2 ×10⁻² umol/ml | 10 ×10⁻² umol/ml | 37.2 ×10⁻² umol/ml | 19.8 ×10⁻² umol/ml | 74.4 ×10⁻² umol/ml | 19.8 ×10⁻² umol/ml | 37.2 ×10⁻² umol/ml | MIC (Candida albicans [21]): 198 µM (≈ 80 µg/mL); MIC (Talaromyces funiculosus [22]): 100 µM (≈ 40.4 µg/mL); MFC99.5 (Aspergillus fumigatus [23]): 74.4 ×10⁻² umol/ml; MFC99.5 (Talaromyces funiculosus [24]): 19.8 ×10⁻² umol/ml; MIC (Pseudomonas aeruginosa [25]): 372 µM (≈ 150 µg/mL); MIC (Aspergillus niger [26]): 144 µM (≈ 58.2 µg/mL); MIC (Staphylococcus aureus [27]): 198 µM (≈ 80 µg/mL); MFC99.5 (Penicillium ochrochloron [28]): 19.8 ×10⁻² umol/ml; MIC (Escherichia coli [29]): 198 µM (≈ 80 µg/mL); MIC (Micrococcus flavus [30]): 273 µM (≈ 110 µg/mL); MIC (Aspergillus versicolor [31]): 74 µM (≈ 29.9 µg/mL); MBC99.5 (Listeria monocytogenes [32]): 74.4 ×10⁻² umol/ml |
| 51 µM (≈ 20 µg/mL) | 102 µM (≈ 39.9 µg/mL) | 204 µM (≈ 79.9 µg/mL) | 408 µM (≈ 160 µg/mL) | 204 µM (≈ 79.9 µg/mL) | 102 µM (≈ 39.9 µg/mL) | 102 µM (≈ 39.9 µg/mL) | 51 µM (≈ 20 µg/mL) | O=C(NN1C(=O)CSC1c1c(F)cccc1F)c1nsc2ccccc12 (stereo unspecified) | 10.2 ×10⁻² umol/ml | 20.4 ×10⁻² umol/ml | 20.4 ×10⁻² umol/ml | 51 ×10⁻² umol/ml | 20.4 ×10⁻² umol/ml | 20.4 ×10⁻² umol/ml | 40.8 ×10⁻² umol/ml | 40.8 ×10⁻² umol/ml | 10.2 ×10⁻² umol/ml | 40.8 ×10⁻² umol/ml | 40.8 ×10⁻² umol/ml | 20.4 ×10⁻² umol/ml | MIC (Candida albicans [21]): 408 µM (≈ 160 µg/mL); MIC (Talaromyces funiculosus [22]): 102 µM (≈ 39.9 µg/mL); MFC99.5 (Aspergillus fumigatus [23]): 51 ×10⁻² umol/ml; MFC99.5 (Talaromyces funiculosus [24]): 20.4 ×10⁻² umol/ml; MIC (Pseudomonas aeruginosa [25]): 204 µM (≈ 79.9 µg/mL); MIC (Aspergillus niger [26]): 204 µM (≈ 79.9 µg/mL); MIC (Staphylococcus aureus [27]): 102 µM (≈ 39.9 µg/mL); MFC99.5 (Penicillium ochrochloron [28]): 51 ×10⁻² umol/ml; MIC (Escherichia coli [29]): 102 µM (≈ 39.9 µg/mL); MIC (Micrococcus flavus [30]): 102 µM (≈ 39.9 µg/mL); MIC (Aspergillus versicolor [31]): 204 µM (≈ 79.9 µg/mL); MBC99.5 (Listeria monocytogenes [32]): 40.8 ×10⁻² umol/ml |
